From US20210122730A1, “GLUCOCORTICOID RECEPTOR MODULATORS” (ORIC Pharmaceuticals, Inc., priority 2017, published 2021)

These molecules were tested against T1, GR (Homo sapiens, UniProt P04150) (assay: In Vitro GR Luciferase Reporter Assay (antagonist mode, CHO-K1-GR-MMTV-Luc reporter cells)). Conditions: antagonist mode, 10 nM Dexamethasone.
T1 construct: expressed in transfected cells; host or cells: CHO-K1
T1 sequence (P04150 1-777): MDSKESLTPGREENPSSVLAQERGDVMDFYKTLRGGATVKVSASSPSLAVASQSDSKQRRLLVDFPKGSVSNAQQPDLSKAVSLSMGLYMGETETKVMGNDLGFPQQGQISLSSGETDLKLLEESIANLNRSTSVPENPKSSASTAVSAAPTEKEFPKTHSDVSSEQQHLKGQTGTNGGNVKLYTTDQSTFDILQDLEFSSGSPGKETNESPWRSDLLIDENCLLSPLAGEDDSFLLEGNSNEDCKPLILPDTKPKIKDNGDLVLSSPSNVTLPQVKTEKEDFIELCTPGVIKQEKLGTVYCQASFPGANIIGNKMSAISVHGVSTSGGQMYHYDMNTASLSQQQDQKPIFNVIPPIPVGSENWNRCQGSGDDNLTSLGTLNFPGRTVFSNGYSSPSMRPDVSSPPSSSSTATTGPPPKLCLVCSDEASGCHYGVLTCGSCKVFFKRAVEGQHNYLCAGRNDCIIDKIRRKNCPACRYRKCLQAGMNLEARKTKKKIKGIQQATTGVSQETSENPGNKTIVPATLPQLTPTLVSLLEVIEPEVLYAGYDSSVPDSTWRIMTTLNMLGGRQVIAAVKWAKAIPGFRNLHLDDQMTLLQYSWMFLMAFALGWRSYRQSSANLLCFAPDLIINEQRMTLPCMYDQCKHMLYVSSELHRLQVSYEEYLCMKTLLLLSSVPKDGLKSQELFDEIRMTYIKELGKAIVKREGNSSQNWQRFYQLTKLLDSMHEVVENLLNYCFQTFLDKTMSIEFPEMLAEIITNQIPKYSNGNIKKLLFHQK
Assay type: cell-based
Outline: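 CHO-K1-GR-MMTV-Luc cells in phenol red-free DMEM with 10% CSS, stimulated with 10 nM dexamethasone (final) and treated with 8-point 1:5 compound dilutions for about 18-24 h at 37° C. Luciferase measured by OneGlo luminescence; IC50 derived for inhibition of GR activity.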
Molecule `Cn1cc(C(=O)N(C2CC2)[C@H]2CCC3=Cc4c(cnn4-c4ccc(F)cc4)C[C@]3(C(=O)c3ncc(C(F)(F)F)s3)C2)cn1` [Example 188, N-cyclopropyl-N-((4aS,6S)-1-(4-fluorophenyl)-4a-(5 (trifluoromethyl)thiazole-2-carbonyl)-4,4a,5,6,7,8-hexahydro-1H-benzo[f]indazol-6-yl)-1-methyl-1H-pyrazole-4-carboxamide] has an IC50 of at most 100 nM.
Molecule `Cn1cc(S(=O)(=O)[C@H]2CCC3=Cc4c(cnn4-c4ccc(F)cc4)C[C@]3(C(=O)c3ncc(C(F)(F)F)s3)C2)cn1` [Example 190, ((4aS,6S)-1-(4-fluorophenyl)-6-((1-methyl-1H-pyrazol-4-yl)sulfonyl)-1,4,5,6,7,8-hexahydro-4aH-benzo[f]indazol-4a-yl)(5-(trifluoromethyl)thiazol-2-yl)methanone] has an IC50 of at most 100 nM.
`CC(C)N([C@H]1CCC2=Cc3c(cnn3-c3ccc(F)cc3)C[C@]2(C(=O)c2ncc(C3CC3)s2)C1)S(=O)(=O)c1cnn(C)c1` [Example 192, N-((4aS,6S)-4a-(5-cyclopropylthiazole-2-carbonyl)-1-(4-fluorophenyl)-4,4a,5,6,7,8-hexahydro-1H-benzo[f]indazol-6-yl)-N-isopropyl-1-methyl-1H-pyrazole-4-sulfonamide] gave an IC50 of at most 100 nM.
`Cn1ccc(C(=O)N(C2CC2)[C@H]2CCC3=Cc4c(cnn4-c4ccc(F)cc4)C[C@]3(C(=O)c3cc(C(F)(F)F)ccn3)C2)n1` [Example 197, N-cyclopropyl-N-((4aS,6S)-1-(4-fluorophenyl)-4a-(4-(trifluoromethyl)picolinoyl)-4,4a,5,6,7,8-hexahydro-1H-benzo[f]indazol-6-yl)-1-methyl-1H-pyrazole-3-carboxamide] showed an IC50 of at most 100 nM.
`Cn1ncc(S(=O)(=O)N(CC2CC2)[C@H]2CCC3=Cc4c(cnn4-c4ccc(F)cc4)C[C@]3(C(=O)c3cc(C(F)(F)F)ccn3)C2)n1` [Example 200, N-(cyclopropylmethyl)-N-((4aS,6S)-1-(4-fluorophenyl)-4a-(4-(trifluoromethyl)picolinoyl)-4,4a,5,6,7,8-hexahydro-1H-benzo[f]indazol-6-yl)-2-methyl-2H-1,2,3-triazole-4-sulfonamide] was tested, and the IC50 was at most 100 nM.
`O=C(c1ncc(C(F)(F)F)s1)[C@]12Cc3cnn(-c4ccc(F)cc4)c3C=C1CC[C@H](N(C1COC1)S(=O)(=O)c1ccc(F)cc1)C2` [Example 205, 4-fluoro-N-((4aS,6S)-1-(4-fluorophenyl)-4a-(5-(trifluoromethyl)thiazole-2-carbonyl)-4,4a,5,6,7,8-hexahydro-1H-benzo[f]indazol-6-yl)-N-(oxetan-3-yl)benzenesulfonamide] showed an IC50 of at most 100 nM.
Molecule `Cn1cc(S(=O)(=O)N(C2COC2)[C@H]2CCC3=Cc4c(cnn4-c4ccc(F)cc4)C[C@]3(C(=O)c3ncc(C(F)(F)F)s3)C2)cn1` [Example 207, N-((4aS,6S)-1-(4-fluorophenyl)-4a-(5-(trifluoromethyl)thiazole-2-carbonyl)-4,4a,5,6,7,8-hexahydro-1H-benzo[f]indazol-6-yl)-1-methyl-N-(oxetan-3-yl)-1H-pyrazole-4-sulfonamide] has an IC50 of at most 100 nM.
`CC(C)N([C@H]1CCC2=Cc3c(cnn3-c3ccc(F)cc3)C[C@]2(C(=O)c2ncc(C(F)(F)F)s2)C1)S(=O)(=O)c1ccc(Cl)cc1` [Example 208, 4-chloro-N-((4aS,6S)-1-(4-fluorophenyl)-4a-(5-(trifluoromethyl)thiazole-2-carbonyl)-4,4a,5,6,7,8-hexahydro-1H-benzo[f]indazol-6-yl)-N-isopropylbenzenesulfonamide] gave an IC50 of at most 100 nM.
In the case of `CC(C)N([C@H]1CCC2=Cc3c(cnn3-c3ccc(F)cc3)C[C@]2(C(=O)c2ncc(C(F)(F)F)s2)C1)S(=O)(=O)c1ccc(F)cc1` [Example 209, 4-fluoro-N-((4aS,6S)-1-(4-fluorophenyl)-4a-(5-(trifluoromethyl)thiazole-2-carbonyl)-4,4a,5,6,7,8-hexahydro-1H-benzo[f]indazol-6-yl)-N-isopropylbenzenesulfonamide], the IC50 is reported as at most 100 nM.
Molecule `Cn1cc(S(=O)(=O)N(C2COC2)[C@H]2CCC3=Cc4c(cnn4-c4ccc(F)cc4)C[C@]3(C(=O)c3cc(C(F)(F)F)ccn3)C2)cn1` [Example 213, N-((4aS,6S)-1-(4-fluorophenyl)-4a-(4-(trifluoromethyl)picolinoyl)-4,4a,5,6,7,8-hexahydro-1H-benzo[f]indazol-6-yl)-1-methyl-N-(oxetan-3-yl)-1H-pyrazole-4-sulfonamide] has an IC50 of at most 100 nM.
With `Cn1cc(S(=O)(=O)N(C2COC2)[C@H]2CCC3=Cc4c(cnn4-c4ccc(F)cc4)C[C@]3(C(=O)c3ncc(C(F)(F)F)s3)C2)nn1` [Example 218, N-((4aS,6S)-1-(4-fluorophenyl)-4a-(5-(trifluoromethyl)thiazole-2-carbonyl)-4,4a,5,6,7,8-hexahydro-1H-benzo[f]indazol-6-yl)-1-methyl-N-(oxetan-3-yl)-1H-1,2,3-triazole-4-sulfonamide] the IC50 was at most 100 nM.
With `Cn1cc(S(=O)(=O)N(C2COC2)[C@H]2CCC3=Cc4c(cnn4-c4ccc(F)cc4)C[C@]3(C(=O)c3cc(C(F)(F)F)ccn3)C2)nn1` [Example 220, N-((4aS,6S)-1-(4-fluorophenyl)-4a-(4-(trifluoromethyl)picolinoyl)-4,4a,5,6,7,8-hexahydro-1H-benzo[f]indazol-6-yl)-1-methyl-N-(oxetan-3-yl)-1H-1,2,3-triazole-4-sulfonamide] the IC50 was at most 100 nM.
Work on `Cn1cc(S(=O)(=O)N(C2CCC2)[C@H]2CCC3=Cc4c(cnn4-c4ccc(F)cc4)C[C@]3(C(=O)c3cc(C(F)(F)F)ccn3)C2)cn1` [Example 235, N-cyclobutyl-N-((4aS,6S)-1-(4-fluorophenyl)-4a-(4-(trifluoromethyl)picolinoyl)-4,4a,5,6,7,8-hexahydro-1H-benzo[f]indazol-6-yl)-1-methyl-1H-pyrazole-4-sulfonamide] yielded an IC50 of at most 100 nM.
Work on `O=C(c1cc(C(F)(F)F)ccn1)[C@]12Cc3cnn(-c4ccc(F)cc4)c3C=C1CC[C@H](N(C1CCCC1)S(=O)(=O)c1ccc(F)cc1)C2` [Example 237, N-cyclopentyl-4-fluoro-N-((4aS,6S)-1-(4-fluorophenyl)-4a-(4-(trifluoromethyl)picolinoyl)-4,4a,5,6,7,8-hexahydro-1H-benzo[f]indazol-6-yl)benzenesulfonamide] yielded an IC50 of at most 100 nM.
`Cn1ccc(S(=O)(=O)N(C2CCCC2)[C@H]2CCC3=Cc4c(cnn4-c4ccc(F)cc4)C[C@]3(C(=O)c3cc(C(F)(F)F)ccn3)C2)n1` [Example 238, N-cyclopentyl-N-((4aS,6S)-1-(4-fluorophenyl)-4a-(4-(trifluoromethyl)picolinoyl)-4,4a,5,6,7,8-hexahydro-1H-benzo[f]indazol-6-yl)-1-methyl-1H-pyrazole-3-sulfonamide] gave an IC50 of at most 100 nM.
`Cn1ncc(S(=O)(=O)N(C2COC2)[C@H]2CCC3=Cc4c(cnn4-c4ccc(F)cc4)C[C@]3(C(=O)c3cc(C(F)(F)F)ccn3)C2)n1` [Example 239, N-((4aS,6S)-1-(4-fluorophenyl)-4a-(4-(trifluoromethyl)picolinoyl)-4,4a,5,6,7,8-hexahydro-1H-benzo[f]indazol-6-yl)-2-methyl-N-(oxetan-3-yl)-2H-1,2,3-triazole-4-sulfonamide] showed an IC50 of at most 100 nM.
`O=C(c1ccc(Cl)cn1)[C@]12Cc3cnn(-c4ccc(F)cc4)c3C=C1CC[C@H](N(C1CC1)S(=O)(=O)c1ccc(F)cc1)C2` [Example 240, N-((4aS,6S)-4a-(5-chloropicolinoyl)-1-(4-fluorophenyl)-4,4a,5,6,7,8-hexahydro-1H-benzo[f]indazol-6-yl)-N-cyclopropyl-4-fluorobenzenesulfonamide] showed an IC50 of at most 100 nM.
For `CC(C)CN([C@H]1CCC2=Cc3c(cnn3-c3ccc(F)cc3)C[C@]2(C(=O)c2cc(Cl)ccn2)C1)S(=O)(=O)c1ccn(C)n1` [Example 249, N-((4aS,6S)-4a-(4-chloropicolinoyl)-1-(4-fluorophenyl)-4,4a,5,6,7,8-hexahydro-1H-benzo[f]indazol-6-yl)-N-isobutyl-1-methyl-1H-pyrazole-3-sulfonamide], the IC50 was at most 100 nM.
Work on `CC(C)CN([C@H]1CCC2=Cc3c(cnn3-c3ccc(F)cc3)C[C@]2(C(=O)c2cc(F)ccn2)C1)S(=O)(=O)c1ccn(C)n1` [Example 252, N-((4aS,6S)-1-(4-fluorophenyl)-4a-(4-fluoropicolinoyl)-4,4a,5,6,7,8-hexahydro-1H-benzo[f]indazol-6-yl)-N-isobutyl-1-methyl-1H-pyrazole-3-sulfonamide] yielded an IC50 of at most 100 nM.
`O=C(c1cc(C(F)(F)F)ccn1)[C@]12Cc3cnn(-c4ccc(F)cc4)c3C=C1CC[C@H](N(C1CCC1)S(=O)(=O)c1ccn(C(F)F)n1)C2` [Example 253, N-cyclobutyl-1-(difluoromethyl)-N-((4aS,6S)-1-(4-fluorophenyl)-4a-(4-(trifluoromethyl)picolinoyl)-4,4a,5,6,7,8-hexahydro-1H-benzo[f]indazol-6-yl)-1H-pyrazole-3-sulfonamide] showed an IC50 of at most 100 nM.
